{
  "source": "paper PMC11602157",
  "about": "“ZNF512B binds RBBP4 via a variant NuRD interaction motif and aggregates chromatin in a NuRD complex-independent manner” (Nucleic Acids Research, 2024)",
  "molecular_target": "T1, RBBP4 (Homo sapiens, UniProt Q09028)",
  "T1 construct": "Expression of recombinant RBBP4 protein was done as described ([32]); His-tag (inferred from His-Trap purification); made in house",
  "T1 sequence (Q09028 whole entry)": "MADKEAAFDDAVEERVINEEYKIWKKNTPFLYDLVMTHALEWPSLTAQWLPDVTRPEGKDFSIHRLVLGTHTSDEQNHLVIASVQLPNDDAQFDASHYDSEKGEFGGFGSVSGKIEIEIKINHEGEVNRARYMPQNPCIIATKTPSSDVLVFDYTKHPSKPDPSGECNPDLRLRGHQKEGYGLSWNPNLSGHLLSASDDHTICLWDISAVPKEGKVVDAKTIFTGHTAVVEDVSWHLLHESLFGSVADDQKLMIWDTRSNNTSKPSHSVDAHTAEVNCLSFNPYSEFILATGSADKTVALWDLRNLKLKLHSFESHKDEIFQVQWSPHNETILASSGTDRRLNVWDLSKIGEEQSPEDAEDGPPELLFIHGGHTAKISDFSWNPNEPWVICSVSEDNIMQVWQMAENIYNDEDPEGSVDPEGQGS",
  "assay": "Competitive fluorescence polarization (displacement of FAM-labeled ZNF512B tracer)",
  "type": "binding",
  "conditions": "ratio of competitive ki, ZNF512B vs FOG-1",
  "procedure": "Expression of recombinant RBBP4 protein was done as described ([32]). RBBP4 was purified by FPLC using the Äkta Start (Cytiva) via a His-Trap column (71502768) and subsequently a HiTRAP Q column (29051325) by standard procedures outlined in the instructions of the manufacturer. To determine the dissociation constant (kD), serial dilutions of RBBP4 protein (10–0 μM, 25 μl) in 50 mM Tris/Cl pH 7.5, 150 mM NaCl and 0.02% Triton™ X-100 were added to 25 μl of the fluorescently tagged tracer peptide for a finale volume of 50 μl with 1 nM tracer. The 384-well plate (GBO 781 900) was measured (Tecan Spark 20M) after 60 min and the kD values were calculated by converting the mP values into their corresponding anisotropy (A) values following the equation:\nHereby, A = anisotropy and P = polarization. These values were plotted versus the respective concentrations of the protein with a non-linear regression according to the following equation: […]\nHereby, A is the experimental anisotropy, Af is the anisotropy for the free ligand, Ab is the anisotropy for the fully bound ligand, LT is the total added concentration of ligand, kD is the equilibrium dissociation constant and RT is the total receptor concentration. […] Inhibition constant (ki) values were calculated using the following equation described previously by Wang et al. and the standard deviation was calculated for each ki value ([35]).",
  "data": [
    {"smiles": "CC(=O)N[C@@H](CCCCN)C(=O)N[C@@H](Cc1c[nH]cn1)C(=O)N[C@@H](CCCNC(=N)N)C(=O)N[C@@H](CCCNC(=N)N)C(=O)N[C@@H](CCCCN)C(=O)N[C@@H](CCC(N)=O)C(=O)N[C@@H](CCCCN)C(=O)N[C@H](C(=O)N1CCC[C@H]1C(=O)N[C@@H](CCCCN)C(=O)N[C@@H](CCCCN)C(=O)N[C@@H](Cc1ccccc1)C(N)=O)[C@@H](C)O", "note": "[ZNF512B-WT]", "values": [
      {"measurement": "higher affinity for RBBP4 than FOG-1", "value": "> 60 -fold"}
    ]}
  ]
}
